Measurements: patent US20060235084A1, “PEG-polyacetal diblock and triblock copolymers and pharmaceutical compositions” (priority 2005, published 2006)

Test: In vitro release of paclitaxel from triblock copolymer gel into PBS release media
Format: physicochemical
Conditions: 23% by weight aqueous triblock copolymer of Example 1, paclitaxel approx. 2.0 mg/ml; PBS pH 7.4 with 2.4% Tween-80 and 4% Cremophor EL, 37° C.; HPLC
Experimental: To a 23% by weight aqueous solution of the triblock copolymer of Example 1 is added sufficient paclitaxel to provide approximately 2.0 mg/ml of drug. A 2 ml sample of this solution is put onto a watchglass and equilibrated at 37° C. Since the temperature is greater than the gelation temperature of the copolymer, a gel formed on the watchglass. The watchglass is placed in a 200 ml beaker containing release media comprised of 150 ml of PBS (pH 7.4) containing 2.4% by weight Tween-80 and 4% by weight Cremophor EL equilibrated at 37° C. The solution in the beaker was stirred, and the top of the beaker is sealed to prevent evaporation. The whole assembly was placed into an incubator at 37° C. The release study is performed in triplicate. At different time periods a 5 ml aliquot of the release media was taken and analyzed for […]. The PBS solution was replaced with fresh PBS after each aliquot removal. Samples were collected at 1, 2, 4, 8, 18, and 24 hours, and thereafter at 24 hour intervals, and analyzed by HPLC. The release profile of […] from the gel is determined. The gel formulation provides excellent control over the release of the paclitaxel for approximately 50 days.

CC(=O)O[C@H]1C(=O)[C@@]2(C)[C@H]([C@H](OC(=O)c3ccccc3)[C@]3(O)C[C@H](OC(=O)[C@H](O)[C@@H](NC(=O)c4ccccc4)c4ccccc4)C(C)=C1C3(C)C)[C@]1(OC(C)=O)CO[C@@H]1C[C@@H]2O [paclitaxel]
duration of controlled release from the gel formulation: approximately 50 days
